This note sets out measurements from the OligoGym collection.

HELM strings list units from the 5' end as sugar, base in round brackets, then linkage (d deoxyribose, r ribose, m 2'-O-methyl, p phosphodiester). Strings are as the collection lists them, not checked against the first reports. ss, as = sense and antisense strand; [hna] = hexitol nucleic acid; [s4r] = 4'-thioribose; [fl2r] = 2'-fluoro
Note: test system not given here.

For this data set the following is noted: siRNA.
Substance “RNA1{r(C)p.r(U)p.r(G)p.r(A)p.r(C)p.r(C)p.r(G)p.r(G)p.r(A)p.r(A)p.r(G)p.r(C)p.r(G)p.r(C)p.r(U)p.m(U)p.r(A)p.r(A)p.r(A)p.r(T)p.r(T)}|RNA2{r(U)p.r(U)p.m(U)p.r(A)p.r(A)p.r(G)p.r(C)p.r(G)p.r(C)p.r(U)p.r(U)p.r(C)p.r(C)p.r(G)p.r(G)p.r(U)p.r(C)p.r(A)p.r(G)p.r(T)p.r(T)}$$$RNA1{StrandType:ss}|RNA2{StrandType:as}$” returned a target mRNA knockdown of 86%.

Take “RNA1{r(A)p.r(U)p.r(C)p.r(C)p.m(U)p.r(G)p.m(C)p.r(A)p.r(G)p.r(A)p.r(A)p.r(G)p.r(A)p.r(A)p.r(G)p.r(C)p.r(C)p.r(U)p.r(C)p.r(T)p.r(T)}|RNA2{r(G)p.r(A)p.r(G)p.r(G)p.r(C)p.r(U)p.r(U)p.r(C)p.r(U)p.r(U)p.r(C)p.r(U)p.r(G)p.r(C)p.r(A)p.r(G)p.r(G)p.r(A)p.r(U)p.r(T)p.r(T)}$$$RNA1{StrandType:ss}|RNA2{StrandType:as}$”: the target mRNA knockdown came to 74%.

Consider “RNA1{r(G)p.r(C)p.r(U)p.r(U)p.r(U)p.m(A)p.r(A)p.r(G)p.r(G)p.r(A)p.r(A)p.r(C)p.m(U)p.r(G)p.r(G)p.r(A)p.r(A)p.r(G)p.r(G)p.r(T)p.r(T)}|RNA2{r(C)p.r(C)p.r(U)p.r(U)p.r(C)p.m(C)p.r(A)p.r(G)p.r(U)p.r(U)p.r(C)p.r(C)p.r(U)p.r(U)p.r(A)p.r(A)p.r(A)p.r(G)p.r(C)p.r(T)p.r(T)}$$$RNA1{StrandType:ss}|RNA2{StrandType:as}$”, for which the target mRNA knockdown was determined as 74%.

Substance “RNA1{r(G)p.r(C)p.r(A)p.r(G)p.r(C)p.r(A)p.r(C)p.r(G)p.r(A)p.r(C)p.r(U)p.r(U)p.r(C)p.r(U)p.r(U)p.r(C)p.r(A)p.r(A)p.r(G)p.r(U)p.r(U)}|RNA2{r(C)p.[fl2r](U)p.r(U)p.r(G)p.r(A)p.r(A)p.r(G)p.r(A)p.r(A)p.r(G)p.r(U)p.r(C)p.r(G)p.r(U)p.r(G)p.r(C)p.r(U)p.r(G)p.r(C)p.r(U)p.r(U)}$$$RNA1{StrandType:ss}|RNA2{StrandType:as}$” yielded a target mRNA knockdown of 73.8%.

Consider “RNA1{r(G)p.r(C)p.r(U)p.r(G)p.r(A)p.r(A)p.r(C)p.[fl2r](U)p.r(A)p.r(G)p.r(U)p.r(C)p.r(G)p.r(A)p.r(A)p.r(A)p.r(G)p.r(A)p.r(A)p.r(T)p.r(T)}|RNA2{r(U)p.r(U)p.r(C)p.r(U)p.r(U)p.r(U)p.r(C)p.r(G)p.r(A)p.r(C)p.[fl2r](U)p.r(A)p.r(G)p.r(U)p.r(U)p.r(C)p.r(A)p.r(G)p.r(C)p.r(T)p.r(T)}$$$RNA1{StrandType:ss}|RNA2{StrandType:as}$”, for which the target mRNA knockdown was 79%.

The substance “RNA1{[s4r](A)p.[s4r](A)p.r(A)p.r(C)p.r(A)p.r(U)p.r(G)p.r(C)p.r(A)p.r(G)p.r(A)p.r(A)p.r(A)p.r(A)p.r(U)p.r(G)p.r(C)p.r(U)p.r(G)p.r(T)p.r(T)}|RNA2{[s4r](C)p.[s4r](A)p.r(G)p.r(C)p.r(A)p.r(U)p.r(U)p.r(U)p.r(U)p.r(C)p.r(U)p.r(G)p.r(C)p.r(A)p.r(U)p.r(G)p.r(U)p.[s4r](U)p.[s4r](U)p.r(T)p.r(T)}$$$RNA1{StrandType:ss}|RNA2{StrandType:as}$” yielded a target mRNA knockdown of 44.8%.

“RNA1{r(G)p.r(C)p.r(U)p.r(U)p.r(C)p.r(G)p.r(G)p.r(A)p.r(A)p.r(A)p.r(C)p.[fl2r](U)p.[fl2r](G)p.r(G)p.r(A)p.[fl2r](C)p.r(A)p.r(U)p.r(C)p.r(T)p.r(T)}|RNA2{r(G)p.r(A)p.[fl2r](U)p.r(G)p.r(U)p.r(C)p.[fl2r](C)p.[fl2r](A)p.r(G)p.r(U)p.r(U)p.r(U)p.r(C)p.r(C)p.r(G)p.r(A)p.r(A)p.r(G)p.r(C)p.r(T)p.r(T)}$$$RNA1{StrandType:ss}|RNA2{StrandType:as}$” had a target mRNA knockdown of 87%.

Take “RNA1{[s4r](C)p.[s4r](G)p.[s4r](U)p.[s4r](A)p.[s4r](C)p.[s4r](G)p.[s4r](C)p.[s4r](G)p.[s4r](G)p.[s4r](A)p.[s4r](A)p.[s4r](U)p.[s4r](A)p.[s4r](C)p.[s4r](U)p.[s4r](U)p.[s4r](C)p.[s4r](G)p.[s4r](A)p.r(T)p.r(T)}|RNA2{r(U)p.r(C)p.r(G)p.r(A)p.r(A)p.r(G)p.r(U)p.r(A)p.r(U)p.r(U)p.r(C)p.r(C)p.r(G)p.r(C)p.r(G)p.r(U)p.r(A)p.r(C)p.r(G)p.r(T)p.r(T)}$$$RNA1{StrandType:ss}|RNA2{StrandType:as}$”: the target mRNA knockdown came to 60.3%.

“RNA1{r(C)p.r(U)p.r(C)p.r(C)p.r(U)p.r(U)p.r(C)p.r(A)p.r(U)p.r(U)p.r(C)p.r(C)p.r(A)p.r(G)p.r(C)p.r(C)p.m(U)p.r(A)p.r(U)p.r(T)p.r(T)}|RNA2{r(A)p.m(U)p.r(A)p.r(G)p.r(G)p.r(C)p.r(U)p.r(G)p.r(G)p.r(A)p.r(A)p.r(U)p.r(G)p.r(A)p.r(A)p.r(G)p.r(G)p.r(A)p.r(G)p.r(T)p.r(T)}$$$RNA1{StrandType:ss}|RNA2{StrandType:as}$” registered a target mRNA knockdown of 81%.

Regarding “RNA1{r(U)p.r(U)p.r(U)p.r(C)p.r(C)p.r(C)p.r(C)p.r(C)p.r(A)p.r(G)p.r(G)p.[fl2r](U)p.r(A)p.r(A)p.r(C)p.r(G)p.r(A)p.r(U)p.r(U)p.r(T)p.r(T)}|RNA2{r(A)p.r(A)p.r(U)p.r(C)p.r(G)p.r(U)p.[fl2r](U)p.r(A)p.r(C)p.r(C)p.r(U)p.r(G)p.r(G)p.r(G)p.r(G)p.r(G)p.r(A)p.r(A)p.r(A)p.r(T)p.r(T)}$$$RNA1{StrandType:ss}|RNA2{StrandType:as}$”, the target mRNA knockdown is 75%.

For the substance “RNA1{r(G)p.r(A)p.r(G)p.[fl2r](U)p.r(A)p.r(U)p.r(U)p.r(U)p.r(C)p.r(C)p.r(G)p.r(C)p.[fl2r](U)p.r(G)p.r(G)p.r(A)p.r(A)p.r(C)p.r(U)p.r(T)p.r(T)}|RNA2{r(A)p.r(G)p.r(U)p.r(U)p.r(C)p.[fl2r](C)p.r(A)p.r(G)p.r(C)p.r(G)p.r(G)p.r(A)p.r(A)p.r(A)p.[fl2r](U)p.r(A)p.r(C)p.r(U)p.r(C)p.r(T)p.r(T)}$$$RNA1{StrandType:ss}|RNA2{StrandType:as}$”, the target mRNA knockdown is 73%.

“RNA1{m(A)p.r(A)p.m(A)p.r(G)p.m(G)p.r(G)p.m(G)p.r(A)p.m(G)p.r(U)p.m(U)p.r(G)p.m(C)p.r(U)p.m(G)p.r(G)p.m(A)p.r(A)p.m(G)p.r(T)p.r(T)}|RNA2{r(C)p.r(U)p.r(U)p.r(C)p.r(C)p.r(A)p.r(G)p.r(C)p.m(A)p.m(A)p.r(C)p.r(U)p.r(C)p.r(C)p.r(C)p.r(C)p.r(U)p.r(U)p.r(U)p.r(T)p.r(T)}$$$RNA1{StrandType:ss}|RNA2{StrandType:as}$”: the target mRNA knockdown came out at 47%.

“RNA1{d(G)p.d(C)p.d(A)p.d(G)p.d(C)p.d(A)p.d(C)p.d(G)p.d(A)p.d(C)p.d(U)p.d(U)p.d(C)p.d(U)p.d(U)p.d(C)p.d(A)p.d(A)p.d(G)p.r(T)p.r(T)}|RNA2{d(C)p.d(U)p.d(U)p.d(G)p.d(A)p.d(A)p.d(G)p.d(A)p.d(A)p.d(G)p.d(U)p.d(C)p.d(G)p.d(U)p.d(G)p.d(C)p.d(U)p.d(G)p.d(C)p.r(T)p.r(T)}$$$RNA1{StrandType:ss}|RNA2{StrandType:as}$” displayed a target mRNA knockdown of 0%.

“RNA1{r(G)p.r(G)p.r(A)p.r(A)p.r(G)p.m(U)p.r(A)p.r(A)p.r(G)p.r(G)p.r(A)p.r(C)p.m(C)p.r(A)p.r(G)p.r(A)p.r(G)p.r(A)p.r(C)p.r(T)p.r(T)}|RNA2{r(G)p.r(U)p.r(C)p.r(U)p.r(C)p.m(U)p.r(G)p.r(G)p.r(U)p.r(C)p.r(C)p.r(U)p.m(U)p.r(A)p.r(C)p.r(U)p.r(U)p.r(C)p.r(C)p.r(T)p.r(T)}$$$RNA1{StrandType:ss}|RNA2{StrandType:as}$” showed a target mRNA knockdown of 41%.

Substance “RNA1{[hna](G)p.[hna](A)p.[hna](C)p.r(G)p.r(U)p.r(A)p.r(A)p.r(A)p.r(C)p.r(G)p.r(G)p.r(C)p.r(C)p.r(A)p.r(C)p.r(A)p.r(A)p.[hna](G)p.[hna](U)p.[hna](U)p.d(T)}|RNA2{r(A)p.r(C)p.[hna](U)p.r(U)p.r(G)p.r(U)p.r(G)p.r(G)p.r(C)p.r(C)p.r(G)p.r(U)p.r(U)p.r(U)p.r(A)p.r(C)p.r(G)p.[hna](U)p.[hna](C)p.[hna](G)p.d(T)}$$$RNA1{StrandType:ss}|RNA2{StrandType:as}$” showed a target mRNA knockdown of 80.6%.

Take “RNA1{r(C)p.r(U)p.r(C)p.r(A)p.r(A)p.r(A)p.r(U)p.r(C)p.r(A)p.r(A)p.r(G)p.r(G)p.r(C)p.r(C)p.r(G)p.r(G)p.r(A)p.r(G)p.r(U)p.r(T)p.r(T)}|RNA2{r(A)p.r(C)p.r(U)p.r(C)p.r(C)p.r(G)p.r(G)p.r(C)p.r(C)p.r(U)p.m(U)p.r(G)p.r(A)p.r(U)p.r(U)p.m(U)p.r(G)p.r(A)p.r(G)p.r(T)p.r(T)}$$$RNA1{StrandType:ss}|RNA2{StrandType:as}$”: the target mRNA knockdown was 85%.

“RNA1{r(A)p.r(A)p.r(A)p.r(C)p.r(C)p.r(U)p.r(C)p.m(A)p.r(G)p.r(C)p.r(C)p.r(C)p.r(U)p.r(A)p.r(A)p.r(C)p.r(G)p.r(G)p.r(U)p.r(T)p.r(T)}|RNA2{r(A)p.r(C)p.r(C)p.r(G)p.r(U)p.m(U)p.r(A)p.r(G)p.r(G)p.r(G)p.r(C)p.r(U)p.r(G)p.r(A)p.r(G)p.r(G)p.r(U)p.r(U)p.r(U)p.r(T)p.r(T)}$$$RNA1{StrandType:ss}|RNA2{StrandType:as}$” returned a target mRNA knockdown of 70%.

Substance “RNA1{r(A)p.r(C)p.r(C)p.r(U)p.r(U)p.r(U)p.r(C)p.m(C)p.r(A)p.r(C)p.r(U)p.r(U)p.r(C)p.m(U)p.r(A)p.r(A)p.r(G)p.r(C)p.r(C)p.r(T)p.r(T)}|RNA2{r(G)p.r(G)p.r(C)p.r(U)p.m(U)p.r(A)p.r(G)p.r(A)p.r(A)p.r(G)p.m(U)p.r(G)p.r(G)p.r(A)p.r(A)p.r(A)p.r(G)p.r(G)p.r(U)p.r(T)p.r(T)}$$$RNA1{StrandType:ss}|RNA2{StrandType:as}$” showed a target mRNA knockdown of 75%.

Substance “RNA1{r(C)p.r(G)p.r(U)p.r(A)p.r(C)p.r(G)p.r(C)p.r(G)p.r(G)p.r(A)p.r(A)p.r(U)p.r(A)p.r(C)p.r(U)p.r(U)p.r(C)p.[s4r](G)p.[s4r](A)p.r(T)p.r(T)}|RNA2{r(U)p.r(C)p.r(G)p.r(A)p.r(A)p.r(G)p.r(U)p.r(A)p.r(U)p.r(U)p.r(C)p.r(C)p.r(G)p.r(C)p.r(G)p.r(U)p.r(A)p.r(C)p.r(G)p.r(T)p.r(T)}$$$RNA1{StrandType:ss}|RNA2{StrandType:as}$” showed a target mRNA knockdown of 95.4%.

On to “RNA1{m(A)p.r(U)p.m(C)p.r(C)p.m(U)p.r(G)p.m(C)p.r(A)p.m(G)p.r(A)p.m(A)p.r(G)p.m(A)p.r(A)p.m(G)p.r(C)p.m(C)p.r(U)p.m(C)p.r(T)p.r(T)}|RNA2{r(G)p.r(A)p.r(G)p.r(G)p.m(C)p.r(U)p.r(U)p.m(C)p.r(U)p.r(U)p.m(C)p.r(U)p.r(G)p.m(C)p.r(A)p.r(G)p.r(G)p.r(A)p.r(U)p.r(T)p.r(T)}$$$RNA1{StrandType:ss}|RNA2{StrandType:as}$”, for which the target mRNA knockdown stood at 37%.
